Experiments:
[1] = test system: plasma Factor VII enzyme activity; experiment: Mouse Factor VII dosing / Factor VII Activity Assay; format: in vivo; settings: percent knock down of plasma Factor VII activity, CD-1 mice, 48 h; for KD FVII 0.3 mg/kg: single IV dose 0.3 mg/kg, LNP Chol/DSPC/PEG-DMG 45/44/9/2
Procedure, shortened: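 Female CD-1 mice (~25 g) received a single IV tail-vein dose of lipid-nanoparticle-formulated Factor VII siRNA (0.3 or 0.03 mg/kg). Plasma taken ~48 h later; FVII activity measured chromogenically against vehicle-control plasma standard curve, reported as % knockdown.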

[2] = test system: PLK-1 mRNA; experiment: LS411N Xenograft Assay; format: in vivo, Nu/Nu mice; settings: percent knock down of PLK-1 mRNA vs control in LS411N tumors, IV 3 mg/kg daily for three days
Protocol: Female Nu/Nu mice (6-8 weeks old) were implanted subcutaneously with 5×10^6 LS411N cells. Tumor growth was monitored by caliper measurement before treatment initiation. Mice bearing 150-250 mm^3 subcutaneous tumors were randomized and enrolled in the study. The stock siRNA formulations were diluted to […] with PBS for dosing. Animals enrolled in different groups received a single daily bolus IV injection of 3 mg/kg siRNA for three days. Tumors were harvested 24 hours post last injection to assess target gene regulation by qRT-PCR.
Lipid nanoparticles comprising lipid compounds of formula (I) and the PLK1-424 siRNA duplex sequence listed above were tested in the LS411N Xenograft Assay. The results of this assay are given in Table 5 below as a percent knock down of PLK-1 mRNA as compared to the control when administered as a single daily dose for three days at a dose of 3 mg/kg.

[3] = test system: human leptin; experiment: Mouse intravenous tail vein injection of modified synthetic leptin mRNA, human leptin ELISA; format: in vivo, C57BL/6 mouse; settings: human leptin in mouse plasma, 10 μg leptin mRNA, 24 h

CCCCCCCCCCOC(=O)CCCCCCCOc1cc(CN(C)C)cc(OCCCCCCCC(=O)OCCCCCCCCCC)c1 [Example 57, didecyl 8,8′-((5-((dimethylamino)methyl)-1,3-phenylene)bis(oxy))dioctanoate]
KD FVII 0.3 mg/kg [1]: 96.7% | LS411 KD 3 × 3 mg/Kg ([2]; LNP Chol/DSPC/S010 45/44/9/2): 60% | Leptin expression IV-C57BI/6, 24 h [3]: 9.17 ng/mL

CCCCC/C=C\C/C=C\CCCCCCCC(=O)OCCCCOc1cc(CN(C)C)cc(OCCCCOC(=O)CCCCCCC/C=C\C/C=C\CCCCC)c1 [Example 38, (9Z,9′Z,12Z,12′Z)-((5-((dimethylamino)methyl)-1,3-phenylene)bis(oxy))bis(butane-4,1-diyl)bis(octadeca-9,12-dienoate)]
KD FVII 0.03 mg/kg ([1]; single IV dose 0.03 mg/kg, LNP Chol/DSPC/S010 45/44/9/2): 43.6% | KD FVII 0.3 mg/kg [1]: 99% | LS411 KD 3 × 3 mg/Kg ([2]; LNP Chol/DSPC/PEG-DSG 45/44/9/2): 58% | LS411 KD 3 × 3 mg/Kg ([2]; LNP Chol/DSPC/S010 45/44/9/2): 60% | Leptin expression IV-C57BI/6, 24 h [3]: 17.21 ng/mL

— patent US10124065B2, “Lipids and lipid compositions for the delivery of active agents” (Novartis AG, priority 2013, dated 2018)
